The results in this text go back to patent US20220125051A1, “PRE-HARVEST DESICCATION METHOD” (SYNGENTA CROP PROTECTION AG, priority 2019, published 2022).

Where two headings read alike, the source gives them in different places.

Holding throughout (assay): Post-emergence efficacy, Method A
Holding throughout (assay type): in vivo

Assay [1] concerns Amaranthus palmeri (AMAPA). To be noted: Amaranthus palmeri, post-emergence, 312 h, evaluated after 13 days. How it is done: (§1) Seeds of a variety of test species were sown in standard soil in pots. After cultivation for 14 days (post-emergence) under controlled conditions in a glasshouse (at 24/16° C., day/night; 14 hours light; 65% humidity), the plants were sprayed with an aqueous spray solution derived from the dissolution of the technical active ingredient formula (I) in a small amount of acetone and a special solvent and emulsifier mixture referred to as IF50 (11.12% Emulsogen EL360 TM+44.44% N-methylpyrrolidone+44.44% Dowanol DPM glycol ether), to create a 50 g/I solution which was then diluted to required concentration using 0.25% or 1% Empicol ESC70 (Sodium lauryl ether sulphate)+1% ammonium sulphate as diluent. The test plants were then grown in a glasshouse under controlled conditions (at 24/16° C., day/night; 14 hours light; 65% humidity) and watered twice daily. After 13 days the test was evaluated (100=total damage to plant; 0=no damage to plant).
(§2) Ipomoea hederacea (IPOHE), Euphorbia heterophylla (EPHHL), Chenopodium album (CHEAL), Amaranthus palmeri (AMAPA), Lolium perenne (LOLPE), Digitaria sanguinalis (DIGSA), Eleusine indica (ELEIN), Echinochloa crus-galli (ECHCG), Setaria faberi (SETFA)

Assay [2] relates to Chenopodium album (CHEAL). To be noted: Chenopodium album, post-emergence, 312 h, evaluated after 13 days. How it is done: as §1, §2
Assay [3] concerns Digitaria sanguinalis (DIGSA). As to conditions: Digitaria sanguinalis, post-emergence, 312 h, evaluated after 13 days. How it is done:
as §1, §2

For assay [4], the system named is Echinochloa crus-galli (ECHCG). As to conditions: Echinochloa crus-galli, post-emergence, 312 h, evaluated after 13 days. How it is done:
as §1, §2

The next assay relates to Eleusine indica (ELEIN). As to conditions: Eleusine indica, post-emergence, 312 h, evaluated after 13 days. How it is done:
as §1, §2

Assay [5] has as its system Euphorbia heterophylla (EPHHL). To be noted: Euphorbia heterophylla, post-emergence, 312 h, evaluated after 13 days. How it is done:
as §1, §2

The test system of assay [6] is Ipomoea hederacea (IPOHE). To be noted: Ipomoea hederacea, post-emergence, 312 h, evaluated after 13 days. How it is done: as §1, §2
Another assay relates to Lolium perenne (LOLPE). As to conditions: Lolium perenne, post-emergence, 312 h, evaluated after 13 days. How it is done:
as §1, §2

In the next assay the test system is Setaria faberi (SETFA). As to conditions: Setaria faberi, post-emergence, 312 h; Application rate 500 g/Ha; evaluated after 13 days; 100=total damage to plant, 0=no damage to plant; read-out: Control of weed species after post-emergence application, SETFA. How it is done: as §1, §2
[7] abbreviates: Application rate 500 g/Ha, 100=total damage to plant, 0=no damage to plant, read-out: Control of weed species after post-emergence application, AMAPA.
[8] abbreviates: Application rate 500 g/Ha, 100=total damage to plant, 0=no damage to plant, read-out: Control of weed species after post-emergence application, CHEAL.
Setting [9] is: Application rate 500 g/Ha, 100=total damage to plant, 0=no damage to plant, read-out: Control of weed species after post-emergence application, DIGSA.
Setting [10] is: Application rate 500 g/Ha, 100=total damage to plant, 0=no damage to plant, read-out: Control of weed species after post-emergence application, ECHCG.
[11] abbreviates: Application rate 500 g/Ha, 100=total damage to plant, 0=no damage to plant, read-out: Control of weed species after post-emergence application, ELEIN.
Where [12] appears, read: Application rate 500 g/Ha, 100=total damage to plant, 0=no damage to plant, read-out: Control of weed species after post-emergence application, EPHHL.
Setting [13] is: Application rate 500 g/Ha, 100=total damage to plant, 0=no damage to plant, read-out: Control of weed species after post-emergence application, IPOHE.
[14] abbreviates: Application rate 500 g/Ha, 100=total damage to plant, 0=no damage to plant, read-out: Control of weed species after post-emergence application, LOLPE.

For `COC(=O)C[n+]1ccc(-c2ncccn2)cn1` [Compound A2, methyl 2-(4-pyrimidin-2-ylpyridazin-1-ium-1-yl)acetate bromide], the pest or weed control at 500 g/ha in [1] (setting [7]) turned out to be 60%; in [2] (setting [8]), 20%; in [3] (setting [9]), 40%; in [4] (setting [10]), 50%; with Eleusine indica (ELEIN) (setting [11]), 30%; in assay [5] (setting [12]), 90%. The results for the pest or weed control at 500 g/ha (in [6] (setting [13]); in the assay with Lolium perenne (LOLPE) (setting [14]); in the assay on Setaria faberi (SETFA)) were 10%, 0% and 80%, respectively.
With `CCOP(=O)(CC[n+]1ccc(-c2cnccn2)cn1)OCC` [Compound A8], the pest or weed control at 500 g/ha in assay [1] (setting [7]) is 10%; in [2] (setting [8]) it was 10%; in assay [3] (setting [9]) it was 20%; in [4] (setting [10]), 10%; with Eleusine indica (ELEIN) (setting [11]), 20%; in assay [5] (setting [12]) it was 10%. For the same molecule, the results for the pest or weed control at 500 g/ha (in [6] (setting [13]); in the assay on Lolium perenne (LOLPE) (setting [14]); with Setaria faberi (SETFA)) were 10%, 0% and 20%, respectively.
With `O=S(=O)(O)CCC[n+]1ccc(-c2cnccn2)cn1` [Compound A10], the pest or weed control at 500 g/ha in assay [1] (setting [7]) was found to be 100%; in [2] (setting [8]), 100%; in assay [3] (setting [9]), 60%; in assay [4] (setting [10]), 30%; in the assay on Eleusine indica (ELEIN) (setting [11]) it was 50%; in [5] (setting [12]) it was 100%. The pest or weed control at 500 g/ha amounted to 40% in [6] (setting [13]), 90% in the assay on Lolium perenne (LOLPE) (setting [14]) and 60% in the assay with Setaria faberi (SETFA).
With `COc1ccnc(-c2cc[n+](CCS(=O)(=O)[O-])nc2)n1` [Compound A13], the pest or weed control at 500 g/ha in assay [1] (setting [7]) came out at 100%; in [2] (setting [8]), 50%; in assay [3] (setting [9]), 70%; in [4] (setting [10]) it was 50%; with Eleusine indica (ELEIN) (setting [11]), 100%; in assay [5] (setting [12]) it was 70%. In addition, the pest or weed control at 500 g/ha amounted to 50% in assay [6] (setting [13]), 50% with Lolium perenne (LOLPE) (setting [14]) and 60% in the assay on Setaria faberi (SETFA).
Consider `COc1cnc(-c2cc[n+](CCS(=O)(=O)[O-])nc2)nc1` [Compound A14], for which the pest or weed control at 500 g/ha worked out at 80% in [1] (setting [7]); 60% in assay [2] (setting [8]); 90% in assay [3] (setting [9]); 60% in assay [4] (setting [10]); 90% in the assay with Eleusine indica (ELEIN) (setting [11]); 20% in assay [5] (setting [12]). The pest or weed control at 500 g/ha in assay [6] (setting [13]) stood at 40%; in the assay on Lolium perenne (LOLPE) (setting [14]), 40%; in the assay with Setaria faberi (SETFA) it was 60%.
For the molecule `CN(C)c1ccnc(-c2cc[n+](CCS(=O)(=O)[O-])nc2)n1` [Compound A16], the pest or weed control at 500 g/ha in [1] (setting [7]) came out at 60%; in assay [2] (setting [8]), 30%; in assay [3] (setting [9]), 50%; in assay [4] (setting [10]), 60%; in the assay on Eleusine indica (ELEIN) (setting [11]), 70%; in [5] (setting [12]) it was 50%. The pest or weed control at 500 g/ha in [6] (setting [13]) was 40%; in the assay with Lolium perenne (LOLPE) (setting [14]) it was 10%; in the assay on Setaria faberi (SETFA), 50%.
Regarding `O=S(=O)([O-])CC[n+]1ccc(-c2ncc(Cl)cn2)cn1` [Compound A17], the pest or weed control at 500 g/ha in [1] (setting [7]) came out at 100%; in [2] (setting [8]) it was 30%; in assay [3] (setting [9]), 60%; in assay [4] (setting [10]), 40%; in the assay on Eleusine indica (ELEIN) (setting [11]), 60%; in assay [5] (setting [12]), 30%. Moreover, the pest or weed control at 500 g/ha came out at 30% in assay [6] (setting [13]), 10% with Lolium perenne (LOLPE) (setting [14]) and 40% with Setaria faberi (SETFA).
`Cc1nccc(-c2cc[n+](CCC(=O)O)nc2)n1` [Compound A55]: the pest or weed control at 500 g/ha in assay [2] (setting [8]) stood at 80%; in assay [3] (setting [9]), 100%; in assay [4] (setting [10]), 90%; in the assay on Eleusine indica (ELEIN) (setting [11]), 100%; in assay [5] (setting [12]), 70%; in [6] (setting [13]), 70%. Besides, the values for the pest or weed control at 500 g/ha in the assay on Lolium perenne (LOLPE) (setting [14]) and with Setaria faberi (SETFA) were 60% and 100%, respectively.
`O=c1cc(-c2cc[n+](CCS(=O)(=O)[O-])nc2)nc[nH]1` [Compound A57]: the pest or weed control at 500 g/ha amounted to 60% in assay [2] (setting [8]); 80% in [3] (setting [9]); 40% in assay [4] (setting [10]); 40% with Eleusine indica (ELEIN) (setting [11]); 60% in assay [5] (setting [12]); 10% in [6] (setting [13]). Further, the pest or weed control at 500 g/ha in the assay on Lolium perenne (LOLPE) (setting [14]) was 10%; with Setaria faberi (SETFA), 60%.
With `COc1nccc(-c2cc[n+](CCS(=O)(=O)[O-])nc2)n1` [Compound A60], the pest or weed control at 500 g/ha in assay [2] (setting [8]) came out at 100%; in [3] (setting [9]), 100%; in assay [4] (setting [10]), 90%; in the assay with Eleusine indica (ELEIN) (setting [11]), 100%; in [5] (setting [12]), 70%; in [6] (setting [13]) it was 60%. Moreover, the pest or weed control at 500 g/ha in the assay on Lolium perenne (LOLPE) (setting [14]) was found to be 70%; with Setaria faberi (SETFA), 90%.
As for `Cc1cnc(-c2cc[n+](CCS(=O)(=O)[O-])nc2)cn1` [Compound A61], the pest or weed control at 500 g/ha in [2] (setting [8]) came to 80%; in [3] (setting [9]), 100%; in [4] (setting [10]), 90%; with Eleusine indica (ELEIN) (setting [11]) it was 100%; in assay [5] (setting [12]) it was 90%; in [6] (setting [13]) it was 50%. Moreover, the pest or weed control at 500 g/ha came out at 70% with Lolium perenne (LOLPE) (setting [14]) and 100% in the assay on Setaria faberi (SETFA).
On to `Nc1cc(-c2cc[n+](CCC(=O)O)nc2)ncn1` [Compound A163], for which the pest or weed control at 500 g/ha in assay [1] (Application Rate 500 g/Ha, Method A, read-out: Control of weed species after post-emergence application, AMAPA (100=total damage to plant; 0=no damage to plant)) came to 100%; in assay [2] (Application Rate 500 g/Ha, Method A, read-out: Control of weed species after post-emergence application, CHEAL (100=total damage to plant; 0=no damage to plant)), 60%; in assay [3] (Application Rate 500 g/Ha, Method A, read-out: Control of weed species after post-emergence application, DIGSA (100=total damage to plant; 0=no damage to plant)), 50%; in assay [4] (Application Rate 500 g/Ha, Method A, read-out: Control of weed species after post-emergence application, ECHCG (100=total damage to plant; 0=no damage to plant)), 40%; in the assay with Eleusine indica (ELEIN) (Application Rate 500 g/Ha, Method A, read-out: Control of weed species after post-emergence application, ELEIN (100=total damage to plant; 0=no damage to plant)), 90%; in assay [5] (Application Rate 500 g/Ha, Method A, read-out: Control of weed species after post-emergence application, EPHHL (100=total damage to plant; 0=no damage to plant)), 50%. The pest or weed control at 500 g/ha in assay [6] (Application Rate 500 g/Ha, Method A, read-out: Control of weed species after post-emergence application, IPOHE (100=total damage to plant; 0=no damage to plant)) amounted to 30%; in the assay on Lolium perenne (LOLPE) (Application Rate 500 g/Ha, Method A, read-out: Control of weed species after post-emergence application, LOLPE (100=total damage to plant; 0=no damage to plant)) it was 70%.
